In ChEMBL document CHEMBL1155339, “Characterization of alpha-nitromethyl ketone as a new zinc-binding group based on structural analysis of its complex with carboxypeptidase A” (Bioorg Med Chem Lett, 2009) one finds Ki and pKa data, which are given here for 7 compounds.

Structures are written as SMILES.

For the first data set, the target named is T1, Carboxypeptidase A1 (Homo sapiens, UniProt P15085).
T1 sequence (P15085 whole entry): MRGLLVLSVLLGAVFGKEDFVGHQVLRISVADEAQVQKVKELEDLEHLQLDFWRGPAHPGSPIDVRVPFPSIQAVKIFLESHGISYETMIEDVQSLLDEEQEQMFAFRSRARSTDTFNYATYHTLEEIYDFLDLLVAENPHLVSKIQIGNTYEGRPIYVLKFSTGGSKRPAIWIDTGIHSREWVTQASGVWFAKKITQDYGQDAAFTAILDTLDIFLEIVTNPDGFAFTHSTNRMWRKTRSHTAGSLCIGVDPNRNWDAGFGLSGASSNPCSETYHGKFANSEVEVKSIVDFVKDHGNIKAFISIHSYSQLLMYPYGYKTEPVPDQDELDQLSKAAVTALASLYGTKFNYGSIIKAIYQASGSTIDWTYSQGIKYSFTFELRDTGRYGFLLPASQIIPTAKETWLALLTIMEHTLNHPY
The data set can be described thus: Inhibition of Carboxypeptidase A assessed as amount of Cl-CPL consumed by UV spectrometer.
In the case of `O=C(CBr)CC(Cc1ccccc1)C(=O)O` (racemic), the Ki worked out at 15 µM.

As to `O=C(C[C@H](Cc1ccccc1)C(=O)O)C[N+](=O)[O-]`, the Ki was 31 µM.

Turning to `CC(=O)CC(Cc1ccccc1)C(=O)O` (racemic), the Ki is 207 µM.

Turning to `O=C(C[C@@H](Cc1ccccc1)C(=O)O)C[N+](=O)[O-]`, the inhibitory constant (Ki) worked out at 0.16 µM.

For `O=C(CC(Cc1ccccc1)C(=O)O)C[N+](=O)[O-]` (racemic), the Ki is 0.43 µM.

For the compound `O=C(O)C(CC(=O)C(F)(F)F)Cc1ccccc1` (racemic), the Ki amounted to 0.2 µM.

Tested on in the next data set: not listed separately
Nature of the data set: Dissociation constant, pKa of the compound. The data set is classed as physicochemical.
`O=C(O)C[N+](=O)[O-]` [NITROACETIC ACID] returned a pKa of 1.68.

As a reminder, the Ki is the equilibrium dissociation constant of an inhibitor or competing ligand from its target. In general, pKa refers to the negative logarithm of the acid dissociation constant. Low readings indicate a group that gives up its proton readily, high ones a group that holds its proton tightly.
